Results published in US10722480B2, “Agent for controlling cells constituting cancer microenvironment or inflammatory microenvironment” (The University of Tokyo, priority 2015, dated 2020).
Read-outs that look alike come from different tables or passages of the source.

Assays:
[1] = test system: B16F10 melanoma cells; experiment: LDH cytotoxicity assay, B16F10 melanoma cells; format: cell-based
Procedure: (§1) The cytotoxicity of inhibitors was tested by using LDH Cytotoxicity Detection Kit (TaKaRa) according to the manufacturer's instructions. Briefly, tumor cells were cultured in the presence or absence of an agent (disulfiram or 5FU) for 72 hours, and the culture supernatant was then collected and tested for the concentration of lactate dehydrogenase released from damaged cells. For measurement of cell proliferation, cells were incubated in a plate well together with an inhibitor for 48 hours. During the last 30 minutes, WST-1 (Dojindo Laboratories) was added to the culture liquid, and the absorbance of each well was measured at 450 nm versus 650 nm reference using EnVision (PerkinElmer) to detect the formazan level.

[2] = test system: B16F10 melanoma cells; experiment: WST-1 proliferation assay, B16F10 melanoma cells; format: cell-based; conditions: WST-1, 48 hours
Procedure: as §1

[3] = test system: LLC tumor cells; experiment: LDH cytotoxicity assay, LLC tumor cells; format: cell-based
Procedure: as §1

[4] = test system: B16F10 melanoma cells; experiment: Lung metastasis model (B16F10); format: in vivo, mouse; conditions: B16F10 via tail vein, Day 9 post tumor administration
Procedure: To provide a lung metastasis model, 1×10^6 B16F10 melanoma cells were suspended in 200 μL of PBS, and administered from the tail vein of each of wild-type C57BL/6 mice. Administration of the inhibitor was carried out one day before, 30 minutes before, and one day after the tumor administration. To provide a control, DMSO and a pyrimidine fluoride anticancer drug 5-FU were administered. The mice were euthanized on Day 9 post tumor administration, and PBS was perfused from the left ventricle, followed by isolation of lungs. Visible lung metastatic lesions in the left lobe were counted.

[5] = biological target: T1, FROUNT-CCR2 interaction (Homo sapiens, UniProt Q9BW27); experiment: HTRF binding inhibition assay, FROUNT-CCR2 interaction
T1 construct: made in house
T1 sequence (Q9BW27 500-656): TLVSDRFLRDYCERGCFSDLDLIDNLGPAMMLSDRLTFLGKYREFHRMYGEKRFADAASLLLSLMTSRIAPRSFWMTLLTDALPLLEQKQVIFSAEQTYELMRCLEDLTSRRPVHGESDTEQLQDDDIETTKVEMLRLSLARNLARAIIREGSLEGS
Procedure: For the screening, a compound library containing 131,200 kinds of compounds dissolved in DMSO at a concentration of 10 mM or 2 mM (obtained from Open Innovation Center for Drug Discovery, the University of Tokyo) was used. The HTRF assay was carried out using a 384-well low-dose white microplate (Corning Coaster; catalog number 3676). In each well, 4 μL of a solution of 20 nM GST fusion FROUNT protein (a recombinant polypeptide prepared by fusing GST to aa 500-656 of SEQ ID NO:2), and DMSO or test compounds were mixed with a binding buffer (10 mM HEPES [pH 7.4], 0.2 M potassium fluoride, 10 mM NaCl, 0.1% Tween 20, and 0.5% bovine serum albumin [BSA]), and the plate was incubated at room temperature for 30 minutes. […]. After incubation at room temperature for 20 hours, the HTRF signal was measured at emission wavelengths of 620 nm and 665 nm using a multilabel counter EnVision (PerkinElmer).
(§2) By the same HTRF assay as described above, the abilities of disulfiram to inhibit the FROUNT-CCR2 interaction or the FROUNT-CCR5 interaction were investigated. As the CCR5 pro-C peptide, the 16 residues […] (SEQ ID NO:4) in the C-terminal region of CCR5 was used. As a control, the p53-MDM2 interaction (which is inhibited by an MDM-2-specific inhibitor Nutlin), which is also a helix peptide-protein interaction like the interaction between FROUNT and CCR2 or CCR5 but is not related thereto, was used.

[6] = biological target: T2, aldehyde dehydrogenase (ALDH) (Rattus norvegicus, UniProt P11884); conditions: Excerpt from Alcohol Clin Exp Res 1996.20.595-; read-out: ALDH inhibition; cited from earlier work
T2 sequence (P11884 20-519): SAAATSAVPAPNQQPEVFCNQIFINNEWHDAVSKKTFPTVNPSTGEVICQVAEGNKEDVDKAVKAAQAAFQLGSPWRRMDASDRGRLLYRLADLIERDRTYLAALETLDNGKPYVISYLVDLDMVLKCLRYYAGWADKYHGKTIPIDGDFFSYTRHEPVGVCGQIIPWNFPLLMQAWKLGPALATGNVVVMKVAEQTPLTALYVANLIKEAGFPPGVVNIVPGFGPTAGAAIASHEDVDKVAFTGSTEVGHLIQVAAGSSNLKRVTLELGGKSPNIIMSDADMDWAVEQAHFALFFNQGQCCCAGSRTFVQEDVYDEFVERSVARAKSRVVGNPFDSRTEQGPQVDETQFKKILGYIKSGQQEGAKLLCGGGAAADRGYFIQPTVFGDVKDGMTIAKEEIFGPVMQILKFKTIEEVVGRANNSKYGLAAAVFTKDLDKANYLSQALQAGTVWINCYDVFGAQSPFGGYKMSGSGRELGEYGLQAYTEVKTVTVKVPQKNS

[7] = biological target: p53-MDM2 interaction (Homo sapiens, UniProt Q00987); experiment: HTRF binding inhibition assay, p53-MDM2 control interaction; conditions: p53-MDM2 control interaction
From the text: as §2

[8] = HTRF, read-out: FROUNT inhibition (IC50 against FROUNT-CCR2)

Chain of p53-MDM2 interaction (Q00987 whole entry): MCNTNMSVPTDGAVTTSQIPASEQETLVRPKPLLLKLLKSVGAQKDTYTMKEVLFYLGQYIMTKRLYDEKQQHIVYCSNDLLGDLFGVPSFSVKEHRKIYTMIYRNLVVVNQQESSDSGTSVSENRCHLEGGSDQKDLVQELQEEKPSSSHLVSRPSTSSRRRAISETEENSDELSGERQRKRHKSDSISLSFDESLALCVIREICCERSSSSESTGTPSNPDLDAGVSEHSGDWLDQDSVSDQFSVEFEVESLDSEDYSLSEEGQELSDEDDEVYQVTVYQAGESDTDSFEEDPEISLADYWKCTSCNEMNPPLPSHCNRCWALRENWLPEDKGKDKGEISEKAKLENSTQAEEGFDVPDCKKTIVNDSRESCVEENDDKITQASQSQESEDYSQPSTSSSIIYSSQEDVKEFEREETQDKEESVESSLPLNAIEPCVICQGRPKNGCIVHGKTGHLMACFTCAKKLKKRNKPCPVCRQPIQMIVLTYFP

Row | SMILES | IC50 [6] | IC50 [5, 8] | IC50 [7] | other results
1 | O=c1[nH]cc(F)c(=O)[nH]1 [5FU] |  |  |  | cytotoxic activity on B16F10 melanoma cells [1]: showed cytotoxic activity; growth-inhibiting action on B16F10 melanoma cells [2]: growth-inhibiting action; cytotoxic activity on LLC tumor cells [3]: completely killed; formation of lung metastatic lesions [4]: did not reduce
2 | CCN(CC)C(=S)S [DDC, sodium diethyldithiocarbamate] |  |  |  | IC50 [5]: 137 nM
3 | CCN(CC)C(=O)S(C)(=O)=O [Me-DTC sulfone] | 530 nM | > 1000 nM | > 1000 nM | 
4 | CCN(CC)C(=O)[S+](C)[O-] (stereo not drawn) [Me-DTC sulfoxide] | 930 nM | > 1000 nM | > 1000 nM | 
5 | CCN(CC)C(=S)[S-].CCN(CC)C(=S)[S-].CCN(CC)C(=S)[S-].[Fe+3] [iron (III) complex of DDC] |  | 9.2 nM |  | 
